Test results as given in ChEMBL document CHEMBL1201862, “PubChem BioAssay data set” (2004).
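Compound exposure: 48 hours, 5 concentrations, 96-well plates. The concentration for 50% growth inhibition is given as GI50.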 The source made the active and inactive calls. Rule as the data show it: active = GI50 up to about 1.1 µM and inactive = higher.

Columns and labels:
Test in all cases: NCI-60 cell line screen, 48 h
NCI-H522 = tested on: NCI-H522
UO-31 = tested on: UO-31
SN12C = tested on: SN12C
RXF 393 = tested on: RXF 393
DU-145 = tested on: DU-145
EKVX = tested on: EKVX
HCC 2998 = tested on: HCC 2998
UACC-257 = tested on: UACC-257
NCI-H23 = tested on: NCI-H23
NCI/ADR-RES = tested on: NCI/ADR-RES
SR = tested on: SR
UACC-62 = tested on: UACC-62
A498 = tested on: A498
A549 = tested on: A549
SK-MEL-5 = tested on: SK-MEL-5
CAKI-1 = tested on: CAKI-1
NCI-H460 = tested on: NCI-H460
DMS-114 = tested on: DMS-114
Hs-578T = tested on: Hs-578T
T47D = tested on: T47D
HL-60 = tested on: HL-60
MCF7 = tested on: MCF7
LOX IMVI = tested on: LOX IMVI
TK-10 = tested on: TK-10
SW-620 = tested on: SW-620
DLD-1 = tested on: DLD-1
HCT-116 = tested on: HCT-116
M19-MEL = tested on: M19-MEL
MDA-MB-231 = tested on: MDA-MB-231
OVCAR-4 = tested on: OVCAR-4
SK-MEL-2 = tested on: SK-MEL-2
KM12 = tested on: KM12
KM-20L2 = tested on: KM-20L2
OVCAR-8 = tested on: OVCAR-8
SK-MEL-28 = tested on: SK-MEL-28
M14 = tested on: M14
SNB-75 = tested on: SNB-75
U-251 = tested on: U-251
IGROV-1 = tested on: IGROV-1
SF-295 = tested on: SF-295
COLO 205 = tested on: COLO 205
SK-OV-3 = tested on: SK-OV-3
MDA-MB-435 = tested on: MDA-MB-435
786-0 = tested on: 786-0
HCT-15 = tested on: HCT-15
PC-3 = tested on: PC-3
MDA-N = tested on: MDA-N
RPMI-8226 = tested on: RPMI-8226
MOLT-4 = tested on: MOLT-4
HT-29 = tested on: HT-29
DMS-273 = tested on: DMS-273
HOP-92 = tested on: HOP-92
NCI-H226 = tested on: NCI-H226
Malme-3M = tested on: Malme-3M
SF-539 = tested on: SF-539
ACHN = tested on: ACHN
LXFL 529 = tested on: LXFL 529
SNB-78 = tested on: SNB-78
CCRF-CEM = tested on: CCRF-CEM
SNB-19 = tested on: SNB-19
SF-268 = tested on: SF-268
K562 = tested on: K562
HOP-62 = tested on: HOP-62
OVCAR-3 = tested on: OVCAR-3
OVCAR-5 = tested on: OVCAR-5

With `CC1(c2cccc(C3CCC4(C=CC3=O)OCCO4)c2)OCCO1` (stereo not given) the GI50 (NCI-H522) was 1.43 µM (inactive), the GI50 (UO-31) was 6.64 µM (inactive) and the GI50 (SN12C) was 14.5 µM (inactive). For the same compound, the GI50 (RXF 393) was 5.9 µM (inactive), the GI50 (DU-145) was 17.9 µM (inactive) and the GI50 (EKVX) was 19.6 µM (inactive). For the same compound, the GI50 (HCC 2998) was 18.6 µM (inactive), the GI50 (UACC-257) was 9.48 µM (inactive) and the GI50 (NCI-H23) was 11.5 µM (inactive). The GI50 (NCI/ADR-RES) was 14.5 µM (inactive), the GI50 (SR) was 3.12 µM (inactive) and the GI50 (UACC-62) was 6.52 µM (inactive). The GI50 (A498) was 16.9 µM (inactive), the GI50 (A549) was 18.5 µM (inactive) and the GI50 (SK-MEL-5) was 14.6 µM (inactive). The GI50 (CAKI-1) was 8.61 µM (inactive), the GI50 (NCI-H460) was 16.4 µM (inactive) and the GI50 (DMS-114) was 1.8 µM (inactive). For the same compound, the GI50 (Hs-578T) was 15.3 µM (inactive), the GI50 (T47D) was 8.49 µM (inactive) and the GI50 (HL-60) was 1.62 µM (inactive). The GI50 (MCF7) was 11 µM (inactive), the GI50 (LOX IMVI) was 11.8 µM (inactive) and the GI50 (TK-10) was 8.2 µM (inactive). The GI50 (SW-620) was 2.9 µM (inactive), the GI50 (DLD-1) was 3.35 µM (inactive) and the GI50 (HCT-116) was 4.2 µM (inactive). For the same compound, the GI50 (M19-MEL) was 5.62 µM (inactive), the GI50 (MDA-MB-231) was 13.2 µM (inactive) and the GI50 (OVCAR-4) was 7.28 µM (inactive). The GI50 (SK-MEL-2) was 12.9 µM (inactive), the GI50 (KM12) was 17.4 µM (inactive) and the GI50 (KM-20L2) was 4.07 µM (inactive). For the same compound, the GI50 (OVCAR-8) was 13.5 µM (inactive), the GI50 (SK-MEL-28) was 16 µM (inactive) and the GI50 (M14) was 6.97 µM (inactive). For the same compound, the GI50 (SNB-75) was 16.3 µM (inactive), the GI50 (U-251) was 18.1 µM (inactive) and the GI50 (IGROV-1) was 18.4 µM (inactive). For the same compound, the GI50 (SF-295) was 34.3 µM (inactive), the GI50 (COLO 205) was 6.14 µM (inactive) and the GI50 (SK-OV-3) was 30.8 µM (inactive). The GI50 (MDA-MB-435) was 13.4 µM (inactive), the GI50 (786-0) was 4.62 µM (inactive) and the GI50 (HCT-15) was 5.36 µM. The GI50 (PC-3) was 17.2 µM (inactive), the GI50 (MDA-N) was 10.3 µM (inactive) and the GI50 (RPMI-8226) was 4.76 µM (inactive). The GI50 (MOLT-4) was 2.84 µM (inactive), the GI50 (HT-29) was 11.8 µM (inactive) and the GI50 (DMS-273) was 10.9 µM (inactive). The GI50 (HOP-92) was 5.81 µM (inactive), the GI50 (NCI-H226) was 25.9 µM (inactive) and the GI50 (Malme-3M) was 4.71 µM (inactive). The GI50 (SF-539) was 14.8 µM (inactive), the GI50 (ACHN) was 4.91 µM (inactive) and the GI50 (LXFL 529) was 1.62 µM (inactive). The GI50 (SNB-78) was 19.4 µM (inactive), the GI50 (CCRF-CEM) was 2.49 µM (inactive) and the GI50 (SNB-19) was 15.9 µM (inactive). The GI50 (SF-268) was 17.3 µM (inactive), the GI50 (K562) was 3.08 µM (inactive) and the GI50 (HOP-62) was 31 µM (inactive). The GI50 (OVCAR-3) was 5.2 µM (inactive) and the GI50 (OVCAR-5) was 18.2 µM (inactive).
With `O=c1[nH]c2nc3ccccc3c(=O)n2nc1Cc1ccccc1` the GI50 (NCI-H522) was 98.2 µM (inactive), the GI50 (UO-31) was 56.8 µM (inactive) and the GI50 (SN12C) was > 100 µM (inactive). The GI50 (EKVX) was > 100 µM (inactive), the GI50 (HCC 2998) was > 100 µM (inactive) and the GI50 (UACC-257) was > 100 µM (inactive). For the same compound, the GI50 (NCI-H23) was > 100 µM (inactive), the GI50 (SR) was > 100 µM (inactive) and the GI50 (UACC-62) was > 100 µM (inactive). The GI50 (A549) was > 100 µM (inactive), the GI50 (SK-MEL-5) was > 100 µM (inactive) and the GI50 (CAKI-1) was > 100 µM (inactive). The GI50 (NCI-H460) was > 100 µM (inactive), the GI50 (DMS-114) was > 100 µM (inactive) and the GI50 (LOX IMVI) was > 100 µM (inactive). The GI50 (SW-620) was > 100 µM (inactive), the GI50 (DLD-1) was > 100 µM (inactive) and the GI50 (HCT-116) was > 100 µM (inactive). For the same compound, the GI50 (OVCAR-4) was 28.3 µM (inactive), the GI50 (SK-MEL-2) was > 100 µM (inactive) and the GI50 (KM12) was > 100 µM (inactive). For the same compound, the GI50 (KM-20L2) was > 100 µM (inactive), the GI50 (OVCAR-8) was > 100 µM (inactive) and the GI50 (SK-MEL-28) was > 100 µM (inactive). For the same compound, the GI50 (M14) was > 100 µM (inactive), the GI50 (SNB-75) was > 100 µM (inactive) and the GI50 (U-251) was > 100 µM (inactive). The GI50 (IGROV-1) was 45.1 µM (inactive), the GI50 (SF-295) was > 100 µM (inactive) and the GI50 (COLO 205) was > 100 µM (inactive). For the same compound, the GI50 (SK-OV-3) was 84.7 µM (inactive), the GI50 (786-0) was > 100 µM (inactive) and the GI50 (HCT-15) was greater than 100 µM. For the same compound, the GI50 (RPMI-8226) was > 100 µM (inactive), the GI50 (MOLT-4) was > 100 µM (inactive) and the GI50 (HT-29) was > 100 µM (inactive). For the same compound, the GI50 (DMS-273) was > 100 µM (inactive), the GI50 (NCI-H226) was 94.6 µM (inactive) and the GI50 (Malme-3M) was > 100 µM (inactive). The GI50 (SF-539) was > 100 µM (inactive), the GI50 (ACHN) was > 100 µM (inactive) and the GI50 (LXFL 529) was > 100 µM (inactive). The GI50 (SNB-78) was > 100 µM (inactive), the GI50 (CCRF-CEM) was > 100 µM (inactive) and the GI50 (SNB-19) was > 100 µM (inactive). The GI50 (SF-268) was > 100 µM (inactive), the GI50 (K562) was > 100 µM (inactive) and the GI50 (HOP-62) was 16.3 µM (inactive). For the same compound, the GI50 (OVCAR-3) was 44.2 µM (inactive) and the GI50 (OVCAR-5) was > 100 µM (inactive).
